The results in this text go back to publication PMC7508583, “Discovery and Preclinical Development of Antigiardiasis Fumagillol Derivatives” (Antimicrobial Agents and Chemotherapy, 2020).

Experiment in all cases: Trophozoite growth inhibition, ATP content (ATPlite) assay
The test system of assay [1] is G. lamblia WB trophozoites. It is filed as cell-based. Conditions: Giardia duodenalis, 72 h, read-out: Mean [IC50 ± SE(IC50)] G. lamblia WB. As for the experimental part: (§1) Antigiardia assays followed by enzyme inhibition determination facilitated the selection of compounds for permeation and stability studies by in vitro methods, prior to advancing to in vivo studies. Compound potency was evaluated first by measuring G. lamblia trophozoite growth as a function of the compound concentration and calculating the IC50 values. Potency in Entamoeba histolytica trophozoites was also determined because of the early report that fumagillin cured amebiasis ([19]). The intent was to test whether the compounds would be suitable to treat gastrointestinal amebiasis rather than the invasive form of the disease, given that the designed strategy was based on reducing compound permeation across the epithelial cell barrier. […] Trophozoite growth was determined by monitoring the ATP cell content using a high-throughput homogeneous assay developed previously for G. lamblia ([57]). The ATP content serves as a marker of cell integrity since ATP degrades rapidly when cells die and the luminescence signal generated by luciferase requires ATP. The same assay was also adopted in 96-well plates for E. histolytica trophozoite growth measurement, as described in Materials and Methods. A similar E. histolytica trophozoite ATP content assay was described previously ([58]). Fumagillin, TNP-470, and a standard-of-care drug (metronidazole) served as positive controls, and cells without the drug (in the presence of 0.5% dimethyl sulfoxide [DMSO]) served as the negative control.
(§2) Trophozoites of G. lamblia isolates WB and GS were grown anaerobically in borosilicate glass screw-cap culture tubes (Fisher Scientific) at pH 7.0 in Keister’s modified TYI-S-33 medium (ATCC). The medium was supplemented with 10% heat-inactivated bovine serum (Sigma-Aldrich) and 0.05% bovine bile (Sigma-Aldrich). To attain low-oxygen-tension conditions, the tubes were filled to 85% to 90% of their total volume capacity and incubated without shaking at 37°C. Subcultures (2 × 10^5 trophozoites per tube) were made three times a week. Detachment of trophozoites for inoculation was achieved by chilling the cultures on ice for 20 min. Culturing and detachment of metronidazole-resistant G. lamblia assemblage A 713M3 and assemblage B 1279-M1 trophozoites followed the same protocol, except that the growth medium was supplemented with metronidazole, with the concentration gradually being increased to 10 μM.
(§3) The growth inhibition assays were performed in duplicate, once for each compound, for all compounds except fumagillin, which served as a positive control and whose inhibitory ability was measured multiple times as new sets of compounds were tested. All dry compounds except for fumagillin were dissolved in dimethyl sulfoxide (DMSO; Sigma) at a stock concentration of 10 mM and then diluted 1:100 in growth medium to a final compound concentration of 100 μM; fumagillin was diluted to 20 μM. Compound solution aliquots (100 μl) were prepared by 3-fold serial dilutions in growth medium containing 0.5% DMSO and distributed into 96-well assay plates. This was followed by the addition of 10 μl G. lamblia or E. histolytica culture containing 10,000 trophozoites. Fumagillin served as a positive control, and the medium-diluted DMSO alone served as a negative control. The assay plates were placed in a BD GasPak EZ container system (BD Diagnostics) to create an anaerobic growth environment. The sealed containers were incubated at 37°C for 72 h. Following incubation, 70 μl/well of the ATPlite reagent (PerkinElmer) was added to the assay plates for one-step lysis and ATP level detection. The luminescent signals of the assay plates were measured on an EnSpire 2300 plate reader (PerkinElmer). Concentration-response titration points for each compound were fitted to a 4-parameter logistic nonlinear regression model using the KaleidaGraph tool, yielding the IC50 value and standard error (SE).

Assay [2] deals with G. lamblia GS trophozoites. It is filed as cell-based, Giardia lamblia. The following applies: for IC50: Giardia duodenalis, 72 h, read-out: Mean [IC50 ± SE(IC50)] G. lamblia GS. As for the experimental part:
as §1, §2, §3

The test system of assay [3] is E. histolytica HM1:IMSS trophozoites. It is filed as cell-based. The following applies: Entamoeba histolytica, 72 h, read-out: Mean [IC50 ± SE(IC50)] E. histolytica HM1: IMSS. As to the method: as §1
E. histolytica strain HM1:IMSS trophozoites were grown at 37°C in TYI-S-33 medium supplemented with penicillin (100 U/ml) and streptomycin sulfate (100 μg/ml) ([65]). Trophozoites were grown anaerobically in borosilicate tubes or T25 flasks, and subcultures were made 1 to 2 times a week. Trophozoites were detached for inoculation by chilling the cultures on ice for 20 min.
as §3, with “The sealed containers were incubated at 37°C for 72 h.” left out

Setting [4] is: trophozoite growth, ATP content.

Read-outs that look alike come from different tables or passages of the source. A value given as a limit tells only on which side of the number the result lay.

For `COC1C(OC(=O)NC(=O)CN(C)C)CCC2(CO2)C1C1(C)OC1CC=C(C)C` (centres unmarked) [Compound 1], the IC50 came out at 2 ± 0.2 nM in assay [1] (setting [4]), 2.4 ± 0.5 nM in assay [2] (setting [4]) and 4.7 ± 0.5 nM in assay [3] (setting [4]).

On to `COC1C(OC(=O)NC(=O)CN2CCCCC2)CCC2(CO2)C1C1(C)OC1CC=C(C)C` (centres unmarked) [Compound 2], for which the IC50 in assay [1] (setting [4]) turned out to be 90.9 ± 34.3 nM; in assay [2] (setting [4]), 82.5 ± 26.4 nM; in assay [3] (setting [4]), 435 ± 79 nM.

Turning to `COC1C(OC(=O)NC(=O)CN2CCN(C)CC2)CCC2(CO2)C1C1(C)OC1CC=C(C)C` (centres unmarked) [Compound 5], the IC50 in assay [1] (setting [4]) was determined as 22.3 ± 1.4 nM; in assay [2] (setting [4]) it was 12.3 ± 2.5 nM; in assay [3] (setting [4]) it was 117 ± 8.4 nM.

In the case of `COC1C(OC(=O)NC(=O)CN2CCN(CCO)CC2)CCC2(CO2)C1C1(C)OC1CC=C(C)C` (centres unmarked) [Compound 6], the IC50 came out at 53.6 ± 10.6 nM in assay [1] (setting [4]), 37 ± 4.4 nM in assay [2] (setting [4]) and 223 ± 29.8 nM in assay [3] (setting [4]).

Take `COC1C(OC(=O)Nc2ccccc2)CCC2(CO2)C1C1(C)OC1CC=C(C)C` (centres unmarked) [Compound 7]: the IC50 in assay [1] (setting [4]) worked out at 3.7 ± 1 nM; in assay [2] (setting [4]), 7 ± 1 nM; in assay [3] (setting [4]), 14.6 ± 2.6 nM.

Regarding `CCOC(=O)c1ccc(NC(=O)OC2CCC3(CO3)C(C3(C)OC3CC=C(C)C)C2OC)cc1` (centres unmarked) [Compound 8], the half-inhibitory concentration (IC50) in assay [1] (setting [4]) is 12.5 ± 4.2 nM; in assay [2] (setting [4]), 27.2 ± 18.1 nM; in assay [3] (setting [4]), 54 ± 4.3 nM. For the same compound, the “fold less active than compound 7” value in assay [2] (trophozoite IC50) was roughly 4 fold.

Take `CO[C@@H]1[C@H](OC(=O)Nc2ccc(C(=O)N3CCC(O)CC3)cc2)CC[C@]2(CO2)[C@H]1[C@@]1(C)O[C@@H]1CC=C(C)C` [Compound 10, (3R,4S,5S,6R)-5-methoxy-4-((2R,3R)-2-methyl-3-(3-methylbut-2-en-1-yl)oxiran-2-yl)-1-oxaspiro[2.5]octan-6-yl (4-(4-hydroxypiperidine-1-carbonyl)phenyl)carbamate]: the IC50 in assay [1] worked out at 171 ± 21 nM; in assay [2], 38.4 ± 3.4 nM; in assay [3] it was 32 ± 2.1 nM.

For the compound `COC1C(OC(=O)Nc2ccc(CC(=O)O)cc2)CCC2(CO2)C1C1(C)OC1CC=C(C)C` (centres unmarked) [Compound 12], the values for the half-inhibitory concentration (IC50) in assay [1] (setting [4]), in assay [2] (setting [4]) and in assay [3] (setting [4]) were 342 ± 50 nM, 63.2 ± 10 nM and 94 ± 6.8 nM, respectively.

`CCOC(=O)CNC(=O)OC1CCC2(CO2)C(C2(C)OC2CC=C(C)C)C1OC` (centres unmarked) [Compound 13]: the IC50 is 13.1 ± 2.4 nM in assay [1], 1.5 ± 0.3 nM in assay [2] and 23.7 ± 2.6 nM in assay [3].

Take `COC1C(OC(=O)NCC(=O)O)CCC2(CO2)C1C1(C)OC1CC=C(C)C` (centres unmarked) [Compound 14]: the IC50 in assay [1] (setting [4]) is greater than 100000 nM; in assay [2] (setting [4]), greater than 100000 nM; in assay [3] (setting [4]) it was 11200 ± 123 nM.

In the case of `COC1C(OC(=O)N2CCCCC2)CCC2(CO2)C1C1(C)OC1CC=C(C)C` (centres unmarked) [Compound 15], the IC50 in assay [1] (setting [4]) came out at 4.9 ± 2.2 nM; in assay [2] (setting [4]), 2.9 ± 0.8 nM; in assay [3] (setting [4]) it was 7.8 ± 0.6 nM.

As for `COC1C(OC(=O)N2CCN(c3ccccc3)CC2)CCC2(CO2)C1C1(C)OC1CC=C(C)C` (centres unmarked) [Compound 17], the results for the IC50 in assay [1] (setting [4]), in assay [2] (setting [4]) and in assay [3] (setting [4]) were 251 ± 70 nM, 109 ± 13.7 nM and greater than 100000 nM, respectively. In addition, the “fold loss of potency compared to compound 16” value in assay [2] (G. lamblia trophozoites) came out at 100 fold.

Take `CCOC(=O)CO[C@@H]1CC[C@]2(CO2)[C@@H]([C@@]2(C)O[C@@H]2CC=C(C)C)[C@@H]1OC` [Compound 18, ethyl 2-(((3R,4S,5S,6R)-5-methoxy-4-((2R,3R)-2-methyl-3-(3-methylbut-2-en-1-yl)oxiran-2-yl)-1-oxaspiro[2.5]octan-6-yl)oxy)acetate]: the IC50 amounted to 42.6 ± 17.5 nM in assay [1], 40.1 ± 4.8 nM in assay [2] and 318 ± 16 nM in assay [3].

Take `COC1C(OCC(=O)O)CCC2(CO2)C1C1(C)OC1CC=C(C)C` (centres unmarked) [Compound 19]: the IC50 in assay [1] (setting [4]), in assay [2] (setting [4]) and in assay [3] (setting [4]) was greater than 2000 nM in each case.

Take `CO[C@@H]1[C@H](O)CC[C@]2(CO2)[C@H]1[C@@]1(C)O[C@@H]1CC=C(C)C` [Fumagillol]: in assay [2], the 50% inhibitory concentration (IC50) was determined as 3400 ± 489 nM.

On to `CO[C@@H]1[C@H](OC(=O)NC(=O)CCl)CC[C@]2(CO2)[C@H]1[C@@]1(C)O[C@@H]1CC=C(C)C` [TNP-470, (3R,4S,5S,6R)-5-methoxy-4-((2R,3R)-2-methyl-3-(3-methylbut-2-en-1-yl)oxiran-2-yl)-1-oxaspiro[2.5]octan-6-yl (2-chloroacetyl)carbamate, reference compound], for which the IC50 in assay [1] is 2.6 ± 0.2 nM; in assay [2] it was 3.4 ± 0.7 nM.
